One data set deals with T1, MMP-14 (Homo sapiens, UniProt P50281).
T1 construct: Catalytic domain MMP-14 was prepared; made in house
In words: Inhibition of MMP-14, fluorogenic peptide cleavage. Format: biochemical. The following applies: catalytic domain MMP-14, 1 nM enzyme. The protocol: (§1) The biological activities of the compounds of the present invention were determined by the following test methods, which are based on the ability of the compounds to inhibit the cleavage of various fluorogenic peptides by MMPs 1, 2, 3, 9, 13 and 14.
(§2) The assays for MMPs 2, 3, 9 and 14 are based upon the original protocol described in Fed. Euro. Biochem. Soc., 1992, 296, 263, with the minor modifications described below.
Catalytic domain MMP-14 was prepared in Pfizer Central Research laboratories in a standard manner from sources known to the skilled person, including some of the references mentioned herein. A 10 μM enzyme stock solution was activated for 20 minutes at 25° C. following the addition of 5 μg/ml of trypsin (Sigma, Dorset, UK). The trypsin activity was then neutralised by the addition of 50 μg/ml of soyabean trypsin inhibitor (Sigma, Dorset, UK), prior to dilution of this enzyme stock solution in Tris-HCl assay buffer (100 mM Tris, 100 mM NaCl, 10 mM CaCl2, 0.16% Brij 35, pH 7.5) to a concentration of 10 nM. The final concentration of enzyme used in the assay was 1 nM.
The fluorogenic substrate used in this screen was Mca-Pro-Leu-Gly-Leu-Dpa-Ala-Arg-NH2 (Bachem Ltd., Essex, UK) as described in J. Biol. Chem., 1996, 271, 17119.
Determination of enzyme inhibition
This was performed in the same manner as described for MMPs 2, 3 and 9.

A further data set addresses T2, MMP-1 (Homo sapiens, UniProt P03956).
T2 construct: Catalytic domain MMP-1 was prepared; made in house
T2 sequence (P03956 100-269 limits assumed): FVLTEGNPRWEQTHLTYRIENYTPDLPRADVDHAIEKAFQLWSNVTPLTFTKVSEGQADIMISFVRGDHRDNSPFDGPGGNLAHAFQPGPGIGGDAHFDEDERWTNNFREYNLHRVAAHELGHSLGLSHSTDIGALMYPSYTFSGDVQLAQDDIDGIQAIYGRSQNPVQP
Kind of data set: Inhibition of MMP-1, fluorogenic peptide cleavage. The class given is biochemical. The following applies: catalytic domain MMP-1, 1 nM enzyme, 10 μM substrate. The protocol:
as §1
Catalytic domain MMP-1 was prepared in Pfizer Central Research laboratories in a standard manner from sources known to the skilled person, including some of the references mentioned herein. A stock solution of MMP-1 (1 μM) was activiated by the addition of aminophenylmercuric acetate (APMA), at a final concentration of 1 mM, for 20 minutes at 37° C. MMP-1 was then diluted in Tris-HCl assay buffer (50 mM Tris, 200 mM NaCl, 5 mM CaCl2, 20 μM ZnSO4 and 0.05% Brij 35, pH 7.5) to a concentration of 10 nM. The final concentration of enzyme used in the assay was 1 nM.
The fluorogenic substrate used in this assay was Dnp-Pro-β-cyclohexyl-Ala-Gly-Cys(Me)-His-Ala-Lys-(N-Me-Ala)-NH2 as originally described in Anal. Biochem., 1993, 212, 58. The final substrate concentration used in the assay was 10 μM.
(§3) Determination of Enzyme Inhibition
(§4) The test compound was dissolved in dimethyl sulphoxide and diluted with assay buffer so that no more than 1% dimethyl sulphoxide was present. Test compound and enzyme were added to each well of a 96 well plate and allowed to equilibrate for 15 minutes at 37° C. in an orbital shaker prior to the addition of substrate. Plates were then incubated for 1 hour at 37° C. prior to determination of fluorescence (substrate cleavage) using a fluorimeter (Fluostar; BMG LabTechnologies, Aylesbury, UK) at an excitation wavelength of 355 nm and emission wavelength of 440 nm. The potency of inhibition was measured from the amount of substrate cleavage obtained using a range of test compound concentrations and, from the resulting dose-response curve, an IC50, value (the concentration of inhibitor required to inhibit 50% of the enzyme activity) was calculated.

A further data set has as its target MMP-9 (Homo sapiens, UniProt P14780). Kind of data set: Inhibition of MMP-9, fluorogenic peptide cleavage. The class given is biochemical. The following applies: catalytic domain MMP-9, 1 nM enzyme, 5 μM substrate. The method, then: as §1, §2
(§5) Inhibition of MMP-2, MMP-3 and MMP-9
(§6) Catalytic domains MMP-2, MMP-3 and MMP-9 were prepared in Pfizer Central Research laboratories in a standard manner from sources known to the skilled person, including some of the references mentioned herein. A stock solution of MMP-2, MMP-3 or MMP-9 (1 μM) was activated by the addition of APMA. For MMP-2 and MMP-9, a final concentration of 1 mM APMA was added, followed by incubation for 1 hour at 37° C. MMP-3 was activated by the addition of 2 mM APMA, followed by incubation for 3 hours at 37° C. The enzymes were then diluted in Tris-HCl assay buffer (100 mM Tris, 100 mM NaCl, 10 mM CaCl2 and 0.16% Brij 35, pH 7.5) to a concentration of 10 nM. The final concentration of enzyme used in the assays was 1 nM.
(§7) The fluorogenic substrate used in this screen was Mca-Arg-Pro-Lys-Pro-Tyr-Ala-Nva-Trp-Met-Lys(Dnp)-NH2 (Bachem Ltd., Essex, UK) as originally described in J. Biol. Chem., 1994, 269, 20952. This substrate was selected because it has a balanced hydrolysis rate against MMPs 2, 3 and 9 (kcat/km of 54,000, 59,400 and 55,300 s^−1 M^−1 respectively). The final substrate concentration used in the assay was 5 μM.
as §3
as §4, with “at 37° C., prior to” for “at 37° C. prior to”, “of fluorescence using a” for “of fluorescence (substrate cleavage) using a”, “wavelength of 328 nm and” for “wavelength of 355 nm and”, “wavelength of 393 nm. The” for “wavelength of 440 nm. The”, “curve, an IC50 value (the” for “curve, an IC50, value (the”

A further data set concerns the target T3, MMP-3 (Homo sapiens, UniProt P08254).
T3 construct: Catalytic domains MMP-2, MMP-3 and MMP-9 were prepared; made in house
Kind of data set: Inhibition of MMP-3, fluorogenic peptide cleavage. Format: biochemical. The following applies: catalytic domain MMP-3, 1 nM enzyme, 5 μM substrate. The method, then: as §1, §2, §5, §6, §7, §3
as §4, with “at 37° C., prior to” for “at 37° C. prior to”, “of fluorescence using a” for “of fluorescence (substrate cleavage) using a”, “wavelength of 328 nm and” for “wavelength of 355 nm and”, “wavelength of 393 nm. The” for “wavelength of 440 nm. The”, “curve, an IC50 value (the” for “curve, an IC50, value (the”

The target of another data set is MMP-2 (Homo sapiens, UniProt P08253). In words: Inhibition of MMP-2, fluorogenic peptide cleavage. Format: biochemical. The following applies: catalytic domain MMP-2, 1 nM enzyme, 5 μM substrate. The method, then:
as §1, §2, §5, §6, §7, §3
as §4, with “at 37° C., prior to” for “at 37° C. prior to”, “of fluorescence using a” for “of fluorescence (substrate cleavage) using a”, “wavelength of 328 nm and” for “wavelength of 355 nm and”, “wavelength of 393 nm. The” for “wavelength of 440 nm. The”, “curve, an IC50 value (the” for “curve, an IC50, value (the”

13 compounds from patent US6511993B1, “Metalloprotease inhibitors” (priority 1999, dated 2003) can be followed below.

Counter-ions that a name gives are not always drawn.

Sequence of MMP-2 (P08253 whole entry, the tested form may be a part): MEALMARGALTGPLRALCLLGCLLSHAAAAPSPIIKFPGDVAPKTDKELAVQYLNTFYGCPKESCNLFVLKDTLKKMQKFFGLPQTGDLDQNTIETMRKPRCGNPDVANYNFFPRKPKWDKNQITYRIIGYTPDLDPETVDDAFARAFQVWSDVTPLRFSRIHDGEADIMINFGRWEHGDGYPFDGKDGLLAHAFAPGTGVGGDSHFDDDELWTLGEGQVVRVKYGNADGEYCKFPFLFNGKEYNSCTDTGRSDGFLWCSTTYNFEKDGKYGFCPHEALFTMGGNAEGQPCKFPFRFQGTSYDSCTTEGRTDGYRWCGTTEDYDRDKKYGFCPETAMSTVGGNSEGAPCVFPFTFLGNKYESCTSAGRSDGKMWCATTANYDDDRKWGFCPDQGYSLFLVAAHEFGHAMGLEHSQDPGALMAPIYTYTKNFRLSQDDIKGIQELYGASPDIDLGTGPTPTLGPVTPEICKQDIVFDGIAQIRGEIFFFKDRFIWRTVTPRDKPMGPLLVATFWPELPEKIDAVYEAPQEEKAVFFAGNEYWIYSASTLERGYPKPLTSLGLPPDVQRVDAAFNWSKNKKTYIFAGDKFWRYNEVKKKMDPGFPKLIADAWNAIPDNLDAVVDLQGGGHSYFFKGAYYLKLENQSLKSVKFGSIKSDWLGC
Sequence of MMP-9 (P14780 whole entry, the tested form may be a part): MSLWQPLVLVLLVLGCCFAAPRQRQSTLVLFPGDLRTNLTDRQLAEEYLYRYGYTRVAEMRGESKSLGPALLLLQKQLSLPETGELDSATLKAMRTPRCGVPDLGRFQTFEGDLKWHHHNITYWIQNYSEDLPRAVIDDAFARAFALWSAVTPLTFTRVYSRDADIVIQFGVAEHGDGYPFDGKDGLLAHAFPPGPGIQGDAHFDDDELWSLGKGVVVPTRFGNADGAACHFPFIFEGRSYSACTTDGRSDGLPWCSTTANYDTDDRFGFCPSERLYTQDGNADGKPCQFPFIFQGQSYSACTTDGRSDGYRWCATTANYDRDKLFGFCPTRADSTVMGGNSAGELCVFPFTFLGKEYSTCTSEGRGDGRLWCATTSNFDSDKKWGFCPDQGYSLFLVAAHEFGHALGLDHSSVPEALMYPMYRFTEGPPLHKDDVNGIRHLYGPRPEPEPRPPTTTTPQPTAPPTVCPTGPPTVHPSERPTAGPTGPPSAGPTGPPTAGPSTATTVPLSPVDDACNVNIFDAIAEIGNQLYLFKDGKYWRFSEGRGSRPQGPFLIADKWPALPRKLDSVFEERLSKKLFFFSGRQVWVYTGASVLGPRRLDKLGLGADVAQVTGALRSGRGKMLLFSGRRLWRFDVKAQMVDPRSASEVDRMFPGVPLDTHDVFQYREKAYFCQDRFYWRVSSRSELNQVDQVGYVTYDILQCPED
T3 sequence (P08254 100-272 limits assumed): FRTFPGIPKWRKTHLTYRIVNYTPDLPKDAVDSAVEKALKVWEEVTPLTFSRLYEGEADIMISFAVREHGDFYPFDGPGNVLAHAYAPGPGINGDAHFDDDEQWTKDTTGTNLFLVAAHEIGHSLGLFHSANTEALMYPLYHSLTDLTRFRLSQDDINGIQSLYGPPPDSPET

In the case of `CNCc1cccc(-c2ccc(C3CCN(S(=O)(=O)C4(C(=O)NO)CCOCC4)CC3)cc2C)c1.Cl`, the melting point (as a rule, the temperature of the solid-liquid transition) lay in the range of 213 to 214 °C.
As for `Cc1cc(C2CCN(S(=O)(=O)C3(C(=O)NO)CCOCC3)CC2)ccc1-c1cccc(OCCO)n1` [Example 3, N-Hydroxy 4-{[4-(4-{6-[2-hydroxyethoxy]pyridin-2-yl}-3-methylphenyl)piperidin-1-yl]sulphonyl}tetrahydro-2H-pyran-4-carboxamide], the IC50 (as a rule, the concentration that inhibits the measured activity by half) on MMP-14 was above 2000 nM; on MMP-1, above 1000 nM; on MMP-9 it was above 70 nM; against MMP-3, below 10 nM; against MMP-2 it was above 100 nM.
In the case of `Cc1cc(C2CCN(S(=O)(=O)C3(C(=O)NO)CCOCC3)CC2)ccc1-c1cccc(OC[C@@H](O)CO)n1` [Example 4, N-Hydroxy 4-{[4-(4-{6-[(2S)-2,3-dihydroxy-1-propoxy]pyridin-2-yl}-3-methylphenyl)piperidin-1-yl]sulphonyl}tetrahydro-2H-pyran-4-carboxamide], the IC50 at MMP-14 is above 2000 nM; at MMP-1, above 1000 nM; against MMP-9 it was above 70 nM; at MMP-3, below 10 nM; at MMP-2, above 100 nM.
With `Cc1cc(C2CCN(S(=O)(=O)C3(C(=O)NO)CCNCC3)CC2)ccc1-c1cccc(OCCO)n1` [Example 6, N-Hydroxy 4-{[4-(4-{6-[2-hydroxyethoxy]pyridin-2-yl}-3-methylphenyl)piperidin-1-yl]sulphonyl}-piperidine-4-carboxamide dihydrochloride], the IC50 against MMP-14 was above 2000 nM; against MMP-1, above 1000 nM; on MMP-9, above 70 nM; against MMP-3, below 10 nM; at MMP-2, above 100 nM.
The corresponding values for `Cc1cc(C2CCN(S(=O)(=O)C3(C(=O)NO)CCN(C)CC3)CC2)ccc1-c1cccc(OCCO)n1` [Example 7, N-Hydroxy 4-{[4-(4-{6-[2-hydroxyethoxy]pyridin-2-yl}-3-methylphenyl)piperidin-1-yl]sulphonyl}-1-methyl-piperidine-4-carboxamide] are above 2000 nM, above 1000 nM, above 70 nM, below 10 nM and above 100 nM.
Consider `Cc1cc(C2CCN(S(=O)(=O)C(C)(C)C(=O)NO)CC2)ccc1-c1cccc(OC[C@@H](O)CO)c1` [Example 8, N-Hydroxy 2-[4-(4-{3-[(2S)-2,3-dihydroxy-1-propoxy]phenyl}-3-methylphenyl)-piperidin-1-ylsulphonyl]-2-methylpropanamide], for which the melting point was in the range of 152 to 154 °C.
On to `Cc1cc(C2CCN(S(=O)(=O)C3(C(=O)NO)CCOCC3)CC2)ccc1-c1cccc(OC[C@@H](O)CO)c1` [Example 10, N-Hydroxy 4-{4-[4-(3-{(2S)-2-hydroxy-2-hydroxymethyl}ethoxyphenyl)-3-methylphenyl]-piperidin-1-ylsulphonyl}-tetrahydro-2H-pyran-4-carboxamide], for which the IC50 was above 2000 nM against MMP-14; above 1000 nM against MMP-1; above 70 nM against MMP-9; below 10 nM at MMP-3; above 100 nM on MMP-2.
In turn, `Cc1cc(C2CCN(S(=O)(=O)C3(C(=O)NO)CCOCC3)CC2)ccc1-c1cccc(CN2CCOCC2)c1` [Example 17, N-Hydroxy 4-{[4-(3-methyl-4-{3-[4-morpholinylmethyl]}phenyl)piperidin-1-yl]sulphonyl}tetrahydro-2H-pyran-4-carboxamide] came in with a melting point of 177 to 179 °C.
Still for that read-out and setting: with `Cc1cc(C2CCN(S(=O)(=O)C3(C(=O)NO)CC(O)C(O)C3)CC2)ccc1-c1cccc(OCCO)n1` (stereo not drawn) [Example 21, (1α,3α,4α)-N,3,4-trihydroxy-1-[(4-{4-[6-(2-hydroxyethoxy)pyridin-2-yl]-3-methylphenyl}piperidin-1-yl)sulfonyl]cyclopentanecarboxamide] the figure was 215 to 218 °C; with `CCOc1cccc(-c2ccc(C3CCN(S(=O)(=O)C4(C(=O)NO)CC(O)C(O)C4)CC3)cc2C)n1` (stereo not drawn) [Example 22, (1α,3α,4α)-1-({4-[4-(6-ethoxypyridin-2-yl)-3-methylphenyl]piperidin-1-yl}sulfonyl)-N,3,4-trihydroxycyclopentanecarboxamide], 204 to 205 °C; with `CCOc1cccc(-c2ccc(C3CCN(S(=O)(=O)C4(C(=O)NO)CC(O)C(O)C4)CC3)cc2C)n1` (stereo not drawn) [Example 23, (1α,3β,4β)-1-({4-[4-(6-ethoxypyridin-2-yl)-3-methylphenyl]piperidin-1-yl}sulfonyl)-N, 3,4-trihydroxycyclopentanecarboxamide], 196 to 197 °C.
Still for that read-out and setting: under `COc1cccc(-c2ccc(C3CCN(S(=O)(=O)C4(C(=O)NO)CC(O)C(O)C4)CC3)cc2C)c1` (stereo not drawn) [Example 24, (1α,3α,4α)-N,3,4-trihydroxy-1-{4-[4-(3-methoxyphenyl)-3-methylphenyl]piperidin-1-ylsulfonyl}cyclopentanecarboxamide] stands 201 to 202 °C; under `COc1cccc(-c2ccc(C3CCN(S(=O)(=O)C4(C(=O)NO)CC(O)C(O)C4)CC3)cc2C)c1` (stereo not drawn) [Example 25, (1α,3β,4β)-N,3,4-trihydroxy-1-{4-[4-(3-methoxyphenyl)-3-methylphenyl]piperidin-1-ylsulfonyl}cyclopentanecarboxamide], 188 to 189 °C.
